According to US20240043386A1, “Modulators of the Cystic Fibrosis Transmembrane Conductance Regulator Protein and Methods of Use” (AbbVie Global Enterprises Ltd., priority 2021, published 2024):
Where two headings read alike, the source gives them in different places.

How the values were obtained:
[1] = molecular target: T1, F508delCFTR (Homo sapiens, UniProt P13569, DEL508-508); assay: Cell Surface Expression-Horse Radish Peroxidase (CSE-HRP) assay in CFBE41o-F508delCFTR-HRP cells; type: cell-based; conditions: for EC50: CFBE41o-F508delCFTR-HRP cells, 18-24 hours at 33° C., luminescence; for Maximum % activity (without co-corrector): normalized to on-plate positive control corrector (2 μM)
T1 construct: expressed in transfected cells; host or cells: CFBE41o- human lung-derived epithelial cell line, doxycycline-inducible expression
Procedure: A cellular assay for measuring the F508delCFTR cell surface expression after correction with test compounds either without or with a co-corrector (2 μM of 3-[(2R,4R)-4-({[1-(2,2-difluoro-1,3-benzodioxol-5-yl)cyclopropyl]carbonyl}amino)-7-methoxy-3,4-dihydro-2H-chromen-2-yl]benzoic acid), was developed in human lung derived epithelial cell line (CFBE4lo-) (Veit G et al, (2012) Mol Biol Cell. 23(21): 4188-4202). The development was achieved by expressing the F508delCFTR mutation along with a horseradish peroxidase (HRP) in the fourth exofacial loop, and then measuring the HRP activity using luminescence readout from these cells, CFBE4lo-F508delCFTR-HRP, that were incubated overnight with the test corrector compounds, either without or with the co-corrector. For this primary assay, the CFBE4lo-F508delCFTR-HRP cells were plated in 384-well plates (Greiner Bio-one; Cat 781080) at 4,000 cells/well along with 0.5 μg/mL doxycycline to induce the F508delCFTR-RP expression and further incubated at 37° C., 5% CO2 for 68-72 hours. The test compounds were then added either without or with a co-corrector at the required concentrations and further incubated for 18-24 hours at 33° C. The highest concentration tested was 20 μM or 30 μM (GI-1 to GIII-36) with an 8-point concentration response curve using a 3-fold dilution in both the test compound without or with the co-corrector. Three replicate plates were run to determine one EC50. All plates contained negative controls (dimethyl sulfoxide, DMSO) and positive control (2 μM or 3 μM (GI-1 to GIII-36) of 3-[(2R,4R)-4-({[1-(2,2-difluoro-1,3-benzodioxol-5-yl)cyclopropyl]carbonyl}amino)-7-methoxy-3,4-dihydro-2H-chromen-2-yl]benzoic acid) as well as on-plate concentration response of the positive control. Post incubation, the plates were washed 5× times with Dulbecco's phosphate buffered saline (DPBS), followed by the addition of the HRP substrate, luminol (50 μL), and measuring the HRP activity using luminescence readout on EnVision® Multilabel Plate Reader (Perkin Elmer; product number 2104-0010). The raw counts from the experiment were analyzed using Accelrys® Assay Explorer v3.3.
Z′ greater than 0.5 was used as passing quality control criteria for the plates. The Z′ is defined as:
1−[3*SDPositive Control+3*SDNegative Control/Absolute (MeanPositive Control−MeanNegative Control)]
The % activity measured at each of the 8 test concentrations of the test compound added either without or with a co-corrector (2 μM or 3 μM (GI-1 to GIII-36) of 3-[(2R,4R)-4-({[1-(2,2-difluoro-1,3-benzodioxol-5-yl)cyclopropyl]carbonyl}amino)-7-methoxy-3,4-dihydro-2H-chromen-2-yl]benzoic acid) was normalized to the on-plate positive control using the following formulae:
% activity (Test compound without co-corrector)=[(test compound without co-corrector response−DMSO response)/(positive control response−DMSO response)]*100
% activity (Test compound with co-corrector)=[(test compound with co-corrector response−DMSO response)/(positive control response−DMSO response)]*100
The maximum % activity achieved for the test compound either without or with a co-corrector at any tested concentration is presented in Table 3 along with the respective EC50's calculated using the following general sigmoidal curve with variable Hill slope equation (described as Model 42 in the Accelrys® Assay Explorer v3.3 software):
General sigmoidal curve with concentration, response, top, bottom, EC50 and Hill slope. This model describes a sigmoidal curve with an adjustable baseline, a. The equation can be used to fit curves where response is either increasing or decreasing with respect to the independent variable, “x”.

[2] = molecular target: T2, F508del/F508del CFTR (Homo sapiens, UniProt P13569, DEL508-508); assay: Trans-Epithelial Current Clamp (TECC) assay using primary human bronchial epithelial cells; type: cell-based; conditions: for Emax (% Dual): maximum percent activity relative to positive control (co-corrector 0.15 μM + potentiator 0.45 μM = 100%), primary hBE cells F508del/F508del; for EC50: primary hBE cells homozygous F508del/F508del, test C2 corrector with co-corrector and potentiator, 18-24 hours at 37° C., equivalent CFTR current (IEQ)/AUC
T2 construct: cells isolated from CF patients with the homozygous mutation; endogenous in cells; host or cells: primary human bronchial epithelial (hBE) cells from CF patients homozygous for F508del
Description: A cell-based assay was developed using the primary human bronchial epithelial cells (hBE cells) with F508del/F508del CFTR and other mutations.
Primary human bronchial epithelial (hBE) cells from CFTR patients with homozygous F508del/F508del mutation were expanded from 1×10^6 to 250×10^6 cells (Neuberger, T et al., 2011, Methods Mol Biol 741:39-54). For this purpose, cells isolated from CF patients with the homozygous mutation, procured from the CF center tissue procurement and cell culture core at the Marsico Lung Institute at UNC (Randell), the Cystic Fibrosis translational research center at McGill University (University), and Rosalind Franklin University Medical School (RFUMS) were seeded onto 24 well Corning (Cat #3378) filter plates that were coated with 3T3 conditioned media and grown at an air-liquid interface for 35 days using an Ultroser® G supplemented differentiation media. All the primary human bronchial epithelial cells were collected in accordance with institutional review board approval protocols. Apical surface mucus was removed 72 hours before the experiment by incubating the apical surface of the cells for 30 minutes with 3 mM dithiothreitol (DTT) prepared in Dulbecco's phosphate buffered saline (DPBS) with Ca^2+ and Mg^2+. This was followed with aspiration of the mucus from the apical surface along with DPBS. The apical surface was re-washed with phosphate buffered saline (PBS) incubated for 30 minutes followed with aspiration. These hBE cells were then incubated with the desired concentrations of the test C2 corrector compounds along with co-corrector, 4-[(2R,4R)-4-({[1-(2,2-difluoro-1,3-benzodioxol-5-yl)cyclopropyl]carbonyl}amino)-7-(difluoromethoxy)-3,4-dihydro-2H-chromen-2-yl]benzoic acid and potentiator, (5-{3-amino-5-[4-(trifluoromethoxy)benzene-1-sulfonyl]pyridin-2-yl}-1,3,4-oxadiazol-2-yl)methanol, for 18-24 hours at 37° C., 5% CO2. The desired concentrations of the correctors and potentiator compounds were prepared from the 10 mM stocks in differentiation media and were always applied on the basolateral side of the epithelial cells. We also used an assay format where a fixed concentration of potentiator was added chronically along with the corrector compounds. This chronic treatment with the potentiator helped eliminate any interaction that might happen with CFTR modulators (correctors and potentiators) and thereby determined the true efficacy of the modulator combinations reflective of clinical relevance.
The assay uses a Transepithelial Current Clamp (TECC) (Vu, C B et al., 2017; J Med Chem 60:458-473) instrument that can measure the functionality of the mutated channel by measuring the equivalent CFTR current (IEQ) generated by the polarized primary epithelial cells. We used a TECC-24 with a 24-channel electrode manifold allowing for the simultaneous measurement of the transepithelial voltage, VT, and transepithelial resistance, RT, under current clamp conditions, from 24 filters using a 24 well Costar filter plate. The design of the filters in the 24 well filter plates was exactly the same as the design of an individual Transwell filter used in the classical Ussing Chamber with a surface area of 0.33 cm^2. Each measured VT values were corrected for the electrode offset potential measured using buffer alone in a separate plate, and each measured RT values were then corrected for the combined solution series and empty filter resistances. The corrected VT and RT values were then used to calculate the equivalent current, IEQ using Ohm's law (IEQ=VT/RT). The area under the curve (AUC) for the time period between the forskolin peak IEQ response and at the time of bumetanide addition was also calculated using a one-third trapezoid method, in addition to calculating the IEQ. The assay was run in a 24-well format and all 24-wells were measured at the same time point giving a higher throughput for this assay. […]

[3] = with co-corrector (2 μM), read-out: EC50 (with co-corrector)
[4] = without co-corrector, read-out: EC50 (without co-corrector)

T2 sequence (P13569 with tags, fused parts or gaps DEL508-508): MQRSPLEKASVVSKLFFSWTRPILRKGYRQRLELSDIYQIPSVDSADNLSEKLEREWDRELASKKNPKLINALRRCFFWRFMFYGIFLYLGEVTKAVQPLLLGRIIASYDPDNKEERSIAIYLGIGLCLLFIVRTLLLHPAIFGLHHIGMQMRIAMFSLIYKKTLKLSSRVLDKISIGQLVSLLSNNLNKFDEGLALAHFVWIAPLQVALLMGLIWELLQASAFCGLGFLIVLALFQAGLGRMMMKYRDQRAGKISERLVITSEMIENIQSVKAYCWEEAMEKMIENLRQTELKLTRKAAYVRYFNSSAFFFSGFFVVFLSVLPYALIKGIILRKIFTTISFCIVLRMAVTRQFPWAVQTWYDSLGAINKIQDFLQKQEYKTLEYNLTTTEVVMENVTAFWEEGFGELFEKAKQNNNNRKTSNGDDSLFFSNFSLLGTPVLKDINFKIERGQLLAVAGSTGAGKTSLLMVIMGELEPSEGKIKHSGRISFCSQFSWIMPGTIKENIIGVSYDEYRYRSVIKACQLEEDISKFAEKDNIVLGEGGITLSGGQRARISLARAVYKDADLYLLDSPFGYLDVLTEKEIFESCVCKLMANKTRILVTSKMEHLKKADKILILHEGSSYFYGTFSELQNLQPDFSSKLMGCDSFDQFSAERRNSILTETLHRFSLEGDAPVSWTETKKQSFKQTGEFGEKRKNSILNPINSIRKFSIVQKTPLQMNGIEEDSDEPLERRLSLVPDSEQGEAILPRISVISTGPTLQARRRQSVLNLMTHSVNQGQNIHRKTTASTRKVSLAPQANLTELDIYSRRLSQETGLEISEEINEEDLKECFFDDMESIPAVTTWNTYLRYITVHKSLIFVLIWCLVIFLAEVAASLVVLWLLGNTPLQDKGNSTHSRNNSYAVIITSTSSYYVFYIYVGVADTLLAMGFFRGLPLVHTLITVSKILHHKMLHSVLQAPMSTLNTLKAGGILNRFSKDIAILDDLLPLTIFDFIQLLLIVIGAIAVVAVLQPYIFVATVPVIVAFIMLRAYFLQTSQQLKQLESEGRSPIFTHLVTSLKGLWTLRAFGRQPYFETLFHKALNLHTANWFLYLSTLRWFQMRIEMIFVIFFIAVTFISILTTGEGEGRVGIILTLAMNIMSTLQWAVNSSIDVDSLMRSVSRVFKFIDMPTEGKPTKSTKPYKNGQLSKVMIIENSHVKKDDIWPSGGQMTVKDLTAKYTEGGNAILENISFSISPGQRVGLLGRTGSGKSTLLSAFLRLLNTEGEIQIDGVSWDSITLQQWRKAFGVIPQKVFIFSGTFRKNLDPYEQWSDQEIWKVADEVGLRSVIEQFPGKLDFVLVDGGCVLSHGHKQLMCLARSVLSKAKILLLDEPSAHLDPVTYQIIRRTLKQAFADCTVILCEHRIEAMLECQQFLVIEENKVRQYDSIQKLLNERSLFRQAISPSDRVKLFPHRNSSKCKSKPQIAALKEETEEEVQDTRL
T1 sequence (P13569 with tags, fused parts or gaps DEL508-508): as above

SMILES	EC50 [1, 3]	EC50 [1, 4]	Maximum % activity (without co-corrector) ([1]; without co-corrector)	Emax (% Dual) [2]	EC50 [2]
COc1ccc(C)cc1[C@]1(C(=O)NS(=O)(=O)c2cccc3nc(C)ccc23)C[C@@H]1c1cnc(C)cn1 (single isomer, unassigned) [Example 92]	1150 nM	2130 nM	653%	187 % Dual	87.6 nM
COc1ccc(C)cc1[C@]1(C(=O)NS(=O)(=O)c2cccc3nc(C)ccc23)C[C@@H]1c1cnc(OC)c(C)n1 [Example 83, (1S,2S)-1-(2-methoxy-5-methylphenyl)-2-(5-methoxy-6-methylpyrazin-2-yl)-N-(2-methylquinoline-5-sulfonyl)cyclopropane-1-carboxamide]	–	–	–	246 % Dual	33.2 nM
COc1ccc(C)cc1[C@]1(C(=O)NS(=O)(=O)c2cccc3nc(C)ccc23)C[C@@H]1c1cnc(OC)c(OC)c1 [Example 104, (1S,2R)-2-(5,6-dimethoxypyridin-3-yl)-1-(2-methoxy-5-methylphenyl)-N-(2-methylquinoline-5-sulfonyl)cyclopropane-1-carboxamide]	–	–	–	350 % Dual	3.8 nM
COc1ccc(C)cc1[C@@]1(C(=O)NS(=O)(=O)c2cccc3nc(C)ccc23)C[C@H]1c1cncc(C)n1 (racemic) [Example 35, rac-(1r,2r)-1-(2-methoxy-5-methylphenyl)-2-(6-methylpyrazin-2-yl)-N-(2-methylquinoline-5-sulfonyl)cyclopropane-1-carboxamide]	1220 nM	1710 nM	582%	331 % Dual	47.9 nM
COc1nccc([C@@H]2C[C@]2(C(=O)NS(=O)(=O)c2cccc3nc(C)ccc23)c2cc(C)ccc2OC)n1 (racemic) [Example 95, rac-(1r,2r)-1-(2-methoxy-5-methylphenyl)-2-(2-methoxypyrimidin-4-yl)-N-(2-methylquinoline-5-sulfonyl)cyclopropane-1-carboxamide]	855 nM	1810 nM	749%	209 % Dual	12.6 nM
COc1ccc(C)cc1[C@]1(C(=O)NS(=O)(=O)c2cccc3nc(C)ccc23)C[C@@H]1c1ccc(C(F)F)nc1 [Example 70, (1S,2R)-2-[6-(difluoromethyl)pyridin-3-yl]-1-(2-methoxy-5-methylphenyl)-N-(2-methylquinoline-5-sulfonyl)cyclopropane-1-carboxamide]	2600 nM	4230 nM	482%	291 % Dual	11.8 nM
COc1ccc(C)cc1[C@]1(C(=O)NS(=O)(=O)c2cccc3nc(C)ccc23)C[C@@H]1c1cncc(C)n1 (single isomer, unassigned) [Example 46]	1520 nM	2350 nM	783%	364 % Dual	30.1 nM
COc1ccc(C)cc1[C@@]1(C(=O)NS(=O)(=O)c2cccc3nc(C)ccc23)C[C@H]1c1ccccn1 [Example 13, (1R,2R)-1-(2-methoxy-5-methylphenyl)-N-(2-methylquinoline-5-sulfonyl)-2-(pyridin-2-yl)cyclopropane-1-carboxamide]	1490 nM	2480 nM	–	232 % Dual	57.7 nM
CCOc1cnc([C@H]2C[C@@]2(C(=O)NS(=O)(=O)c2cccc3nc(C)ccc23)c2cc(C)ccc2OC)cn1 (single isomer, unassigned) [Example 66]	–	–	–	253 % Dual	15.2 nM
CCOc1ncccc1[C@H]1C[C@@]1(C(=O)NS(=O)(=O)c1cccc2nc(C)ccc12)c1cc(C)ccc1OC (single isomer, unassigned) [Example 71]	–	–	–	288 % Dual	11.3 nM
COc1ccc(C)cc1[C@]1(C(=O)NS(=O)(=O)c2cccc3nc(C)ccc23)C[C@@H]1c1cnc(C(C)C)cn1 (single isomer, unassigned) [Example 64]	–	–	–	342 % Dual	33.7 nM
COc1ccc(C)cc1[C@@]1(C(=O)NS(=O)(=O)c2cccc3nc(C)ccc23)CC1c1ccc(C)nc1 (stereo in doubt) [Example 10, (1R,2S)-1-(2-methoxy-5-methylphenyl)-2-(6-methylpyridin-3-yl)-N-(2-methylquinoline-5-sulfonyl)cyclopropane-1-carboxamide]	–	–	–	194 % Dual	804 nM
COc1ccc([C@H]2C[C@@]2(C(=O)NS(=O)(=O)c2cccc3nc(C)ccc23)c2cc(C)ccc2OC)c(OC)n1 (single isomer, unassigned) [Example 94]	–	–	–	246 % Dual	7 nM
